Some test systems named below: ACHN renal; EKVX NSCLC; HCC-2998 colon; LXFL 529 NSCLC; NCI-H226 lung; SF-295 CNS; SNB-75 CNS; UO-31 renal; HOP-18 NSCLC; NCI/ADR-RES ovarian.
Assay in all cases: DTP human tumour cell line panel, 48 h

This is an account of results in PubChem BioAssay (NCI).

Molecules are shown by their SMILES.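 Cells were grown in 96-well plates and exposed to each compound for 48 hours at five concentrations; endpoints were interpolated linearly between bracketing concentrations, or set to the highest concentration if not reached. The concentration for 50% growth inhibition is given as GI50. TGI is the concentration that stops growth completely.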

The TGI is the concentration giving total growth inhibition. Higher therefore signals less potent growth arrest. Turning to `Cc1c(C(=O)c2ccccc2C(=O)O)c2ccccc2n1C`, the TGI in the test on ACHN renal, with EKVX NSCLC, in the test on HCC-2998 colon, in the test with LXFL 529 NSCLC, in the test with NCI-H226 lung and in the test with SF-295 CNS was over 100 µM each time. Further, the TGI in the test with SNB-75 CNS and in the test with UO-31 renal was over 100 µM each time.

Consider `COC1OC(CO)C(O)C(O)C1Br` (stereo not given), for which the TGI in the test with ACHN renal, in the test with HCC-2998 colon, in the test on HOP-18 NSCLC, in the test on LXFL 529 NSCLC and with SF-295 CNS was over 100 µM throughout.

As a reminder, the GI50 is the concentration that inhibits growth by half. Turning to `CC1(C)OC(=O)C=C([O-])O1.CC1(C)OC(=O)C=C([O-])O1.O=S(=O)([O-])c1ccc([O-])c2ncccc12.O=S(=O)([O-])c1ccc([O-])c2ncccc12.[Ti+4]`, the GI50 in the test with ACHN renal is 50.3 µM; in the test with EKVX NSCLC, over 100 µM; in the test with HOP-18 NSCLC, 26 µM; with LXFL 529 NSCLC, 67.1 µM; with NCI-H226 lung, over 100 µM; in the test on SF-295 CNS, over 100 µM. Also, the GI50 in the test with SNB-75 CNS and in the test with UO-31 renal was over 100 µM throughout. Moreover, the TGI with ACHN renal, in the test on EKVX NSCLC, in the test with HOP-18 NSCLC, with LXFL 529 NSCLC, with NCI-H226 lung and in the test with SF-295 CNS was over 100 µM in each case. For the same molecule, the total growth inhibition concentration (TGI) with SNB-75 CNS and with UO-31 renal was over 100 µM each time.

`C=C=C(CC)C(C(=O)OC)N(CC)CC` (stereo not given): the TGI in the test on ACHN renal, in the test with EKVX NSCLC, with HOP-18 NSCLC, in the test with LXFL 529 NSCLC, in the test with NCI-H226 lung and in the test on SF-295 CNS was over 100 µM in each case. Moreover, the total growth inhibition concentration (TGI) in the test on SNB-75 CNS and in the test on UO-31 renal was over 100 µM throughout.

Turning to `COC(=O)c1c2c(c(C)[n+]([O-])c1C)C(=O)C=C(NCc1ccc(F)c(F)c1)C2=O`, the GI50 is 0.572 µM in the test with ACHN renal; 0.685 µM in the test with EKVX NSCLC; 0.359 µM in the test on HCC-2998 colon; 1.44 µM with NCI-H226 lung; 0.313 µM in the test with NCI/ADR-RES ovarian; 0.437 µM in the test with SF-295 CNS. The GI50 was 1.63 µM in the test on SNB-75 CNS and 1.11 µM in the test with UO-31 renal. Moreover, the concentration for total growth inhibition (TGI) in the test with ACHN renal stood at 2.01 µM; in the test on EKVX NSCLC, 2.26 µM; with HCC-2998 colon, 1.43 µM; in the test on NCI-H226 lung, 3.27 µM; with NCI/ADR-RES ovarian it was 1.65 µM; in the test on SF-295 CNS, 1.59 µM. Besides, the concentration for total growth inhibition (TGI) with SNB-75 CNS was 2.99 µM; with UO-31 renal, 2.35 µM.

In the case of `O=C(NCCCNc1cc(-c2cn(-c3ccccc3)nc2-c2cccc(O)c2)ccn1)c1ccccc1`, the GI50 was 3.47 µM in the test on ACHN renal; 3.16 µM in the test with EKVX NSCLC; 1.92 µM in the test with HCC-2998 colon; 2.72 µM in the test with NCI-H226 lung; 2.67 µM in the test with NCI/ADR-RES ovarian; 1.76 µM in the test with SF-295 CNS. For the same molecule, the GI50 is 1.68 µM in the test on SNB-75 CNS and 2.36 µM in the test with UO-31 renal. The TGI in the test with ACHN renal was over 100 µM; with EKVX NSCLC, over 100 µM; in the test on HCC-2998 colon, 3.69 µM; in the test with NCI-H226 lung, 17.9 µM; in the test on NCI/ADR-RES ovarian it was 9.79 µM; in the test with SF-295 CNS, 4.81 µM. The results for the TGI with SNB-75 CNS and in the test on UO-31 renal were 46.9 µM and 23.6 µM, respectively.

Take `COCC(=O)CP(=O)(OC)OC`: the concentration for total growth inhibition (TGI) in the test on ACHN renal, in the test on EKVX NSCLC, in the test with LXFL 529 NSCLC, with SF-295 CNS, in the test with SNB-75 CNS and in the test with UO-31 renal was over 100 µM throughout.

Consider `COc1ccc(/C=C/c2nc(NCCCN(C)C)c3ccccc3n2)cc1`, for which the GI50 in the test on ACHN renal was 17.1 µM; with EKVX NSCLC, 5.17 µM; in the test with HCC-2998 colon, 13.8 µM; with NCI-H226 lung, 12 µM; in the test on NCI/ADR-RES ovarian, over 100 µM; in the test with SF-295 CNS, 5.15 µM. Also, the GI50 in the test with SNB-75 CNS was 1.34 µM; with UO-31 renal, 14.1 µM. Further, the TGI in the test on ACHN renal was 31.7 µM; with EKVX NSCLC it was 21.1 µM; in the test with HCC-2998 colon, 27.6 µM; in the test on NCI-H226 lung it was 30.7 µM; with NCI/ADR-RES ovarian, over 100 µM; in the test on SF-295 CNS, 11 µM. For the same molecule, the total growth inhibition concentration (TGI) came to 2.88 µM in the test with SNB-75 CNS and 29.4 µM in the test with UO-31 renal.

On to `CCCCCCCCCCN(CCCCCCCCCC)CC(=O)c1ccc2cc(Br)c3ccccc3c2c1`, for which the GI50 with ACHN renal is 1.68 µM; in the test with EKVX NSCLC, 5.31 µM; with HCC-2998 colon it was 1.73 µM; with NCI-H226 lung it was 1.77 µM; with NCI/ADR-RES ovarian it was 1.79 µM; in the test with SF-295 CNS, 1.75 µM. The GI50 was 2.1 µM with SNB-75 CNS and 1.86 µM with UO-31 renal. The total growth inhibition concentration (TGI) in the test with ACHN renal came to 3.19 µM; in the test with EKVX NSCLC it was 19.8 µM; with HCC-2998 colon, 3.16 µM; with NCI-H226 lung it was 3.47 µM; with NCI/ADR-RES ovarian it was 3.52 µM; in the test with SF-295 CNS, 3.53 µM. Besides, the results for the TGI in the test with SNB-75 CNS and with UO-31 renal were 5.45 µM and 7.2 µM, respectively.

As to `CC(=O)OC1CC2C(C)(C)C(=O)C=C[C@]2(C)C2CCC3(C)C(c4ccoc4)C(=O)[C@H]4O[C@]43[C@]12C` (stereo not given in full), the TGI is 45.1 µM in the test on ACHN renal; 89.2 µM with EKVX NSCLC; 32.2 µM with HCC-2998 colon; over 100 µM in the test on LXFL 529 NSCLC; 50.4 µM in the test on NCI-H226 lung; over 100 µM in the test on SNB-75 CNS. Moreover, the concentration for total growth inhibition (TGI) in the test with UO-31 renal was determined as 32.7 µM.

In the case of `NC1CCN(c2nc(Nc3cccc(C(F)(F)F)c3)c3c(=O)[nH]ccc3n2)CC1`, the GI50 was 0.944 µM in the test with ACHN renal; 1.35 µM in the test with EKVX NSCLC; 1.6 µM in the test with HCC-2998 colon; 1.86 µM with NCI-H226 lung; 1.87 µM in the test with NCI/ADR-RES ovarian; 1.96 µM in the test on SF-295 CNS. For the same molecule, the GI50 is 1.77 µM in the test on SNB-75 CNS and 1.19 µM in the test with UO-31 renal. Also, the TGI is 2.21 µM in the test on ACHN renal; 3.16 µM in the test with EKVX NSCLC; 3 µM with HCC-2998 colon; 3.7 µM in the test on NCI-H226 lung; 3.63 µM in the test on NCI/ADR-RES ovarian; 3.59 µM in the test on SF-295 CNS. The concentration for total growth inhibition (TGI) in the test on SNB-75 CNS was found to be 3.19 µM; with UO-31 renal, 2.62 µM.
